One may read the IC50 as the point on the concentration scale where inhibition reaches its midpoint.

One experiment concerns complement activation. The conditions noted are these: relative to compstatin amidated at the C-terminus; published data; cited from earlier work.
In another experiment the target is C3 convertase (CVF:Bb) (Homo sapiens, UniProt P00751). The experiment is described as follows: C3 Convertase Assay (biochemical assay, compound contacted with CVF:Bb, then C3 substrate added). An excerpt: Various technologies are available for assessing provided compounds, compositions and methods. In some embodiments, a useful assay is an assay described below. […] In some embodiments, a purified, isolated or enriched C3 convertase is utilized. […] In some embodiments, a compound was first contacted with CVF:Bb, followed by addition of C3 substrates. As those skilled in the art will appreciate, products C3a and/or C3b could be detected through a number of technologies (e.g., antibodies specific for a product) and reduction of levels of one or both of them could be utilized to assess inhibition.
Sequence of C3 convertase (CVF:Bb) (P00751 260-764 limits assumed): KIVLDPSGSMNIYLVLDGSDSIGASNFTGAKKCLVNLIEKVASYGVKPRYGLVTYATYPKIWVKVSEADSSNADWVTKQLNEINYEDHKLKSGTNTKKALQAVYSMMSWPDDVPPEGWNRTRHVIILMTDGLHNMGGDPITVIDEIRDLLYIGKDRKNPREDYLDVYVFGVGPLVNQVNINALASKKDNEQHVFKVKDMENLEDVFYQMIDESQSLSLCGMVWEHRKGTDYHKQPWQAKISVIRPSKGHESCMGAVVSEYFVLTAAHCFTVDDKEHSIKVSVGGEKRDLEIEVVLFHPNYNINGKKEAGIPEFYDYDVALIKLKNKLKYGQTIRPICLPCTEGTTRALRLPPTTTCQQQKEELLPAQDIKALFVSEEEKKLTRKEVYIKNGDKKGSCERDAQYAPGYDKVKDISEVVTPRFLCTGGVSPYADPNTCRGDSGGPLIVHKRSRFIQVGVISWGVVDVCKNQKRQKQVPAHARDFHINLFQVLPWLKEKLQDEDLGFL

Experiment [1] relates to complement alternative pathway. The experiment is described as follows: Wieslab AP assay (Complement Alternative Pathway ELISA, human serum as source of complement). In kind it is biochemical. The conditions noted are these: read-out: B: Wieslab AP IC50 (nM) (alternative pathway). An excerpt: Among other things, the present disclosure provides compounds and compositions that can modulate complement activation. In some embodiments, provided technologies inhibit complement activation. In some embodiments, provided technologies inhibit C3 convertase. Various technologies are available for assessing provided compounds, compositions and methods. In some embodiments, a useful assay is an assay described below. In some embodiments, IC50 of a provided compound measured in an assay is about or no more than about 1000, 900, 800, 700, 600, 500, 400, 300, 200, 100, 90, 80, 70, 60, 50, 40, 30, 20, or 10 nM. In some embodiments, a useful assay is a biochemical assay assessing inhibition of C3 convertase activity by a provided compound. In some embodiments, a purified, isolated or enriched C3 convertase is utilized. In some embodiments, CVF:Bb (e.g., assembled from three components Cobra Venom Factor (CVF), Complement Factor B (FB) and Complement Factor D (FD)) was utilized (certain results are presented as “A” in the Table below). In some embodiments, a compound was first contacted with CVF:Bb, followed by addition of C3 substrates. As those skilled in the art will appreciate, products C3a and/or C3b could be detected through a number of technologies (e.g., antibodies specific for a product) and reduction of levels of one or both of them could be utilized to assess inhibition. In some embodiments, a useful assay is Wieslab© assay (certain results are presented as “B” in the Table below).
In some embodiments, classical and alternative pathway activity are assessed using Wieslab© technologies. In some embodiments, Wieslab© assay were performed with a commercially available kit, using a protocol adapted for measurement of complement inhibitory activity of compounds. In some embodiments, human serum was utilized as a positive control. In some embodiments, human serum serves as a source of complement proteins, and inhibition of complement activity of a serum by various compounds were assessed. In some embodiments, a kit is COMPL AP330, Complement Alternative Pathway ELISA, Eagle Biosciences. In some embodiments, a kit is COMPL CP310, Complement Classical Pathway ELISA, Eagle Biosciences. In some embodiments, kits are available from VWR (102994-104, Complement Alternative pathway ELISA, Eagle Biosciences, Inc.; 102994-106, Complement Classical pathway ELISA, Eagle Biosciences, Inc.).
In some embodiments, a useful procedure described below is utilized. • 1. Make fresh test compound stock at 1 mM. • 2. Test compound serial dilution: dilute the stock to working stock concentrations. Add DMSO to dilution buffer using same dilution factor for the working stock so the composition of all the serial diluted stock is the same. In some embodiments, stock was serial diluted from the working stock 1:4 (for classical pathway) or 1:2 (for alternative pathway) using new diluted dilution buffers. • 3. Dilute positive controls using the dilution buffer provided with the assay kit to 2× of the final conc., for classical pathway, 50.5×. Positive control is human serum, which contains complement proteins. • 4. Add 125 μL of test compound solution and 125 μL of diluted positive control to a 96 well polypropylene plate, mix gently and cover the plate and incubate at 4° C. for 30 min. • 5. Add 100 μL/well to the assay plate and incubate at 37° C. for 1 h. Typically, controls in the assay plate, for example, buffer alone for negative control, positive control alone to verify the complement activity of the reagent. • 6. Wash plate and add 100 μL/well conjugate, incubate at room temperature for 30 min. • 7. Wash plate and add 100 μL/well substrate, then incubate at room temperature for approximately 30 minutes. Periodically monitor the absorbance at 405 nm (OD405) in the positive control alone well. • 8. Once the OD405 is >1, read the whole plate immediately. Or stop the reaction by adding 100 μL of 5 mM EDTA to each well and read within 60 minutes.

For “Ac-ICV(2-Nal)QDWGAHRCT-COOH [Ac V4(2-Nal)/H9A-OH]”, the Activity over compstatin in the experiment with complement activation was 38xmore.

For the molecule “Ac-ICV(2-Nal)QDWGAHRCT-CONH2 [Ac-V4(2-Nal)/H9A]”, in the experiment on complement activation, the Activity over compstatin was 99xmore.

Take “Ac-ICV(Bpa)QDWGAHRCT-CONH2 [Ac-V4(Bpa)/H9A]”: the Activity over compstatin in the experiment with complement activation was 86xmore. Take Ac-ICVYQDWGAHRCT-CONH2 [Ac-V4Y/H9A]: the Activity over compstatin with complement activation is given as 14xmore.

On to “Ac-ICVDhtQDWGAHRCT-COOH [Ac-V4Dht/H9A-OH]”, for which the Activity over compstatin with complement activation is 5xmore.

Consider “Ac-ICV(2-Igl)QDWGAHRCT-CONH2 [Ac-V42Igl/H9A]”, for which the Activity over compstatin in the experiment with complement activation is reported as 39xmore. For the molecule “Ac-ICVWQDWGAHRCdT-COOH [Ac-V4W/H9A/T13dT-OH]”, in the experiment with complement activation, the Activity over compstatin is listed as 55xmore. Take “Ac-ICWVQDWGHHRCT-CONH2 (Ac-ICWVQDWGHHRCT-NH2; not fully specified (bridges); printed as Ac-ICWVQDWGHHRCT-CONH2; cysteine pairing not given here) [Ac-compstatin, "compstatin analogs useful in the present disclosure"]”: the Activity over compstatin in the experiment on complement activation is 3xmore. Regarding “Ac-ICV(1-Nal)QDWGAHRCT-COOH [Ac V4(1-Nal)/H9A-OH]”, the Activity over compstatin in the experiment on complement activation was 30xmore. As to “Ac-ICVWQDWGAHRCT-CONH2 (Ac-ICVWQDWGAHRCT-NH2; cysteine pairing not given here) [Ac-V4W/H9A, "compstatin analogs useful in the present disclosure"]”, in the experiment with complement activation, the Activity over compstatin was 45xmore. “Ac-ICV(Bpa)QDWGAHRCT-COOH [Ac-V4(Bpa)/H9A-OH]”: the Activity over compstatin with complement activation is recorded as 49xmore. As to `COc1cc(C)c2[nH]ccc2c1CN1CCN(Cc2ncc[nH]2)C[C@H]1c1ccc(C(=O)O)cc1`, the 50% inhibitory concentration (IC50) was over 10000 nM at C3 convertase (CVF:Bb) and 8860 nM in experiment [1]. For `COc1cc(C)c2[nH]ccc2c1CN1CCN(CCO)C[C@H]1c1ccc(C(=O)O)cc1`, the IC50 came to 350 nM against C3 convertase (CVF:Bb) and 128 nM in experiment [1]. `COc1cc(C)c2[nH]ccc2c1CN1CCN(CCC(F)(F)F)C[C@@H]1c1ccc(C(=O)O)nc1`: the IC50 against C3 convertase (CVF:Bb) is 6440 nM; in experiment [1], over 10000 nM. In the case of “Ac-ICVWQD(5fW)GAHRCT-CONH2 [Ac-V4W/W7(5fW)/H9A]”, the Activity over compstatin with complement activation is 121xmore. Turning to `COc1cc(C)c2[nH]ccc2c1CN1CCN(CCCF)CC1c1ccc(C(=O)O)cc1` (stereo not shown), the IC50 at C3 convertase (CVF:Bb) came out at 119 nM; in experiment [1], 153 nM. `COc1cc(C)c2[nH]ccc2c1CN1CCN(CC(F)(F)F)C[C@H]1c1ccc(C(=O)NS(C)(=O)=O)cc1`: the half-inhibitory concentration (IC50) against C3 convertase (CVF:Bb) amounted to 212 nM; in experiment [1], 382 nM. The matching figures for `COc1cc(C)c2[nH]ccc2c1CN1CCN(C)C[C@H]1c1ccc(C(=O)O)cc1` (single isomer, unassigned): 45 nM and 64 nM. The matching figures for `C=CCN1CCN(Cc2c(OC)cc(C)c3[nH]ccc23)C(c2ccc(C(=O)O)cc2)C1` (stereo not shown): 250 nM and 1490 nM.

Regarding `COc1cc(C)c2[nH]ccc2c1CN1CCN(CC(F)(F)F)C[C@H]1c1ccc(C(=O)O)cc1`, the figures for the IC50 (against C3 convertase (CVF:Bb); in experiment [1]) were 176 nM and 174 nM, respectively. Consider “Ac-ICV(2-Igl)QDWGAHRCT-COOH [Ac-V42Igl/H9A-OH]”, for which the Activity over compstatin with complement activation is recorded as 37xmore. In the case of `COc1cc(C)c2[nH]ccc2c1CN1CCN(CCC(F)F)C[C@H]1c1ccc(C(=O)O)cc1`, the half-inhibitory concentration (IC50) (against C3 convertase (CVF:Bb); in experiment [1]) was 27 nM throughout. On to “H-GICV(6fW)QD(6fW)GAHRCTN-COOH [+G/V4(6fW)/W7(6fW)H9A + N-OH]”, for which the Activity over compstatin in the experiment with complement activation is on record as 126xmore. Regarding `CCN1CCN(Cc2c(OC)cc(C)c3[nH]ccc23)C(c2ccc(C(=O)O)cc2)C1` (stereo not shown), the results for the IC50 (at C3 convertase (CVF:Bb); in experiment [1]) were 219 nM and 205 nM, respectively. As to `COc1cc(C)c2[nH]ccc2c1CN1CCN(C(C)C(F)F)C[C@H]1c1ccc(C(=O)O)cc1` (stereo partly shown), the IC50 at C3 convertase (CVF:Bb) was found to be 228 nM; in experiment [1], 230 nM.

`COc1cc(C)c2[nH]ccc2c1CN1CCN(CC(F)F)CC1c1ccc(C(=O)O)cc1` (stereo not shown): the 50% inhibitory concentration (IC50) came out at 76 nM against C3 convertase (CVF:Bb) and 36 nM in experiment [1].

`[2H]C([2H])([2H])N1CCN(Cc2c(OC)cc(C)c3[nH]ccc23)[C@H](c2ccc(C(=O)O)cc2)C1`: the IC50 at C3 convertase (CVF:Bb) stood at 65 nM; in experiment [1], 9 nM. Turning to `COc1cc(C)c2[nH]ccc2c1CN1CCN(CCF)CC1c1ccc(C(=O)O)cc1` (stereo not shown), the IC50 was determined as 65 nM against C3 convertase (CVF:Bb) and 107 nM in experiment [1]. For the molecule `COc1cc(C)c2[nH]ccc2c1CN1CCN(CCC(F)(F)F)C[C@H]1c1ccc(C(=O)NS(C)(=O)=O)cc1`, the IC50 on C3 convertase (CVF:Bb) was 56 nM; in experiment [1], 65 nM. The matching figures for `COc1cc(C)c2[nH]ccc2c1CN1CCN(C2CC2)CC1c1ccc(C(=O)O)cc1` (stereo not shown): 141 nM and 29 nM.

The record behind these values is patent US20240360103A1, “COMPLEMENT INHIBITION” (Apellis Pharmaceuticals, Inc., priority 2021, published 2024).
